The values below come from patent US6866858B2, “Method and compositions for attracting mosquitoes” (BioSensory, Inc., priority 2000, dated 2005).

The subject of this test is Aedes taeniorhyncus mosquitoes. In words: Outdoor screened cage mosquito capture test with CO2 collection jar and attractant. The test is classed as in vivo. Conditions: for Average captured: average of three replicate tests; for Average captured / Total captured: 250 μL attractant + 500 cc/min CO2, 1000 mosquitoes per test; for Mosquitoes captured: single replicate test, 250 μL attractant on fibrous absorbent in CFG 6 jar with 500 cc/min CO2, 1000 mosquitoes introduced, after several hours; for Total captured: sum of three replicate tests; for Average increase in capture over control: versus CO2-only control (average 334 captured). The protocol:
The following tests were conducted by the United States Department of Agriculture in Florida in a large outdoor screened cage of a size of approximately 30 ft.×60 ft.×20 ft. (9.144×18.288×6.096 meters). Into approximately the center of the base of the cage was placed a CFG 6 Collection Jar of American Biophysics providing 500 cc/min CO2. Also placed in the CFG-6 Jar was a fibrous absorbent into which had been absorbed 250 μL of the test attractant compound. There were then introduced into the cage, from the periphery thereof, 1000 Aedes taeniorhyncus mosquitoes. After a period of several hours the collection jar was examined to determine the number of mosquitoes captured. As controls, similar tests were run with the CF 6 Collection jar without any attractant compound, i.e. with only CO2. Three replicate tests were run with each test attractant compound. The compound 1-octyn-3-ol was employed as the attractant compound of this invention and 1-octenol as an example of a prior art attractant.

Each structure is given as a SMILES string. Where “and” joins values, the source holds several entries; their conditions need not be identical. Identical values can stand only once.

Consider `C=CC(O)CCCCC` (stereo not drawn) [1-octen-3-ol, reference compound], for which the Average captured result was “Average captured: 568”; the Mosquitoes captured is 624 and 560 and 520; the Total captured is 1704; the “Average increase in capture over control” value is “Average increase in capture over control: 234”.
For the compound `C#CC(O)CCCCC` (stereo not drawn) [1-octyn-3-ol], the Average captured entry is “Average captured: 735”; the Mosquitoes captured is 779 and 599 and 826; the Total captured amounted to 2204; the “Average increase in capture over control” value was “Average increase in capture over control: 401”. Besides, the “more mosquitoes captured than the prior art 1-octen-3-ol attractant” value (compared with 1-octen-3-ol in the same test) is “over 71%”.
